This is an account of results in article PMC11607601, “Absence of the dolichol synthesis gene DHRSX leads to N-glycosylation defects in Lec5 and Lec9 Chinese hamster ovary cells” (The Journal of Biological Chemistry, 2024).

Common to all, as to format: biochemical
Experiment [1] addresses T1, chDHRSX (Chinese hamster DHRSX) (Cricetulus griseus, UniProt A0A9J7GKV7).
T1 construct: gene LOC113838539; N-terminal 6xHis tag, pET15b, E. coli BL21(DE3), HisTrap native purification
T1 sequence (A0A9J7GKV7 1-328): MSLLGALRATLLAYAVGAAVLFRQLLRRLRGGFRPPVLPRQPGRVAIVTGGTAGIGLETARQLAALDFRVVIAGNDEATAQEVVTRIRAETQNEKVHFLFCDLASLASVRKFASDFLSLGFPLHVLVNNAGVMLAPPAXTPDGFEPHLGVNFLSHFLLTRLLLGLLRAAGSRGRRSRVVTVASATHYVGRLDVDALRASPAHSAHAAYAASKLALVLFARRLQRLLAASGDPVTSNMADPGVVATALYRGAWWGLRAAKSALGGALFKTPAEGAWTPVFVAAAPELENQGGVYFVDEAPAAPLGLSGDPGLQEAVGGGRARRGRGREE
Kind of experiment: LC-MS of dolichol-18 formation, Michaelis-Menten fit. The note with it: 4 μM dolichal mixture, pH 8.0, 37 °C, PC/PE lipids. From the text:
LC-MS of dolichol-18 formation, Michaelis-Menten fit on chDHRSX (Chinese hamster DHRSX)

The target in experiment [2] is T2, hDHRSX (human DHRSX) (Homo sapiens, UniProt Q8N5I4).
T2 construct: pUB83 hDHRSX-N-His lentiviral expression in DHRSX-null Lec5 and Lec9 CHO cells; membrane preparation
T2 sequence (Q8N5I4 2-330): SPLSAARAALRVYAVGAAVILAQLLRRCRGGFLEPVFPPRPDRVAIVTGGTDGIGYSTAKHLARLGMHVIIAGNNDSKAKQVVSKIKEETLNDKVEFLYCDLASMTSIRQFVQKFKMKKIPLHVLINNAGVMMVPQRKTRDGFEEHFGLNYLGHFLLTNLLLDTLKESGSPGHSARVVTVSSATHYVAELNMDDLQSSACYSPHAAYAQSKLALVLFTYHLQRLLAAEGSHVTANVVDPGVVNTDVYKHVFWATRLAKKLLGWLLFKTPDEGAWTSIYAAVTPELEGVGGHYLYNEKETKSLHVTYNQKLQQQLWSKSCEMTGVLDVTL
Kind of experiment: LC-MS of dolichol-18 formation in membranes. The note with it: dolichal mixture 5 μg/ml, 5 mM NADPH, pH 8.0, 37 °C, 2 h.

Experiment [3] has as its target T1, chDHRSX (Chinese hamster DHRSX). Kind of experiment: LC-MS of polyprenal-18 formation, Michaelis-Menten fit. To be noted: 4 μM polyprenol mixture, pH 8.0, 37 °C, PC/PE lipids. The source says: LC-MS of polyprenal-18 formation, Michaelis-Menten fit on chDHRSX (Chinese hamster DHRSX)
In experiment [4] the target is T2, hDHRSX (human DHRSX). Kind of experiment: LC-MS of polyprenal-18 formation in membranes. The note with it: polyprenol mixture 5 μg/ml, 5 mM NAD+, pH 8.0, 37 °C, 2 h.

Structures are written as SMILES.

For the molecule `NC(=O)C1=CN([C@@H]2O[C@H](COP(=O)(O)OP(=O)(O)OC[C@H]3O[C@@H](n4cnc5c(N)ncnc54)[C@H](O)[C@@H]3O)[C@@H](O)[C@H]2O)C=CC1` [NADH], in experiment [1] (read-out: NADH), the Km was 34 ± 7 µM.
As for `NC(=O)C1=CN([C@@H]2O[C@H](COP(=O)(O)OP(=O)(O)OC[C@H]3O[C@@H](n4cnc5c(N)ncnc54)[C@H](OP(=O)(O)O)[C@@H]3O)[C@@H](O)[C@H]2O)C=CC1` [NADPH], the Km in experiment [1] (read-out: NADPH) was 26 ± 8 µM. The “LC-MS of dolichol-18 formation in membranes” value on hDHRSX (human DHRSX) [2] was “expression of hDHRSX strongly increased dolichol formation”.
Take `NC(=O)c1ccc[n+]([C@@H]2O[C@H](COP(=O)(O)OP(=O)(O)OC[C@H]3O[C@@H](n4cnc5c(N)ncnc54)[C@H](OP(=O)(O)O)[C@@H]3O)[C@@H](O)[C@H]2O)c1` [NADP^+]: the Km in experiment [3] (read-out: NADP^+) was 96 ± 43 µM.
Take `NC(=O)c1ccc[n+]([C@@H]2O[C@H](COP(=O)(O)OP(=O)(O)OC[C@H]3O[C@@H](n4cnc5c(N)ncnc54)[C@H](O)[C@@H]3O)[C@@H](O)[C@H]2O)c1` [NAD^+]: at hDHRSX (human DHRSX) [4], the “LC-MS of polyprenal-18 formation in membranes” value was “expression of hDHRSX in Lec5 and Lec9 cells increased the formation of polyprenal”. In addition, the Km in experiment [3] (read-out: NAD^+) came to 81 ± 36 µM.
